The results in this text go back to patent publication US12227513B2, “Salt and crystalline form of furopyrimidine compound and pharmaceutical use thereof” (TIUMBIO CO., LTD., priority 2018, dated 2025).

SMILES strings stand for the structures. Structures can show the parent of a compound that is named as a salt.

Assay type in all cases: physicochemical
Data set [1] in a line: Hygroscopicity (weight increase after 1 week at 25° C. and 60% or 90% relative humidity). Particulars: weight increase relative to the initial weight. Here is the method: Each of the salts (dibesylate salt, dihydrochloride salt, dioxalate salt, sodium salt, potassium salt) prepared in the above examples was left to stand at 25° C. and 60% or 90% relative humidity for 1 week, and a hygroscopicity thereof was measured. Here, the hygroscopicity was measured as a percentage of weight increase, which was measured after the hygroscopicity test, relative to the initial weight.

The nature of data set [2]: Chemical purity after standing at 80° C. (HPLC; lactam-based related substances and main compound). Conditions: for Increase in related substances: After 20 hours at 80° C., peak area of lactam-based related substances relative to main compound (HPLC); for Residual amount of main compound: After 21 days at 80° C., HPLC. Here is the method: (§1) Each of the salts (dibesylate salt, dihydrochloride salt, sodium salt, potassium salt) prepared in the above examples was left to stand at 80° C. for 20 hours, and then an amount of change in related substances was measured. In addition, each of the salts was left to stand at 80° C. for 21 days, and then a residual amount of the main compound (compound of Formula 1) was measured. For measurement of the related substances and the main compound, samples were taken before and after exposure to 80° C., dissolved in a diluted solution at a concentration of 1 mg/mL, and then subjected to high-performance liquid chromatography (HPLC). From the resulting data, an increase in related substances was calculated by measuring a peak area of lactam-based related substances relative to a peak area of the main compound. In addition, for comparison, the same test was also carried out for the free base of the compound of Formula 1.

Data set [3] is described as follows: Chemical purity after storage for 3 months at 40° C. and 75% relative humidity (HPLC). Here is the method:
as §1
In addition, in a similar manner, the dibesylate salt prepared in the above example was stored for 3 months (at 40° C. and 75% relative humidity), and amounts of change in lactam-based related substances and main compound were measured.

A short description of data set [4]: Stability of drug product (oral capsule, 50° C. and 80% humidity for 3 weeks, HPLC). Particulars: 50° C. and 80% relative humidity for 3 weeks. The method, then:
Using each of the salts (dibesylate salt, dihydrochloride salt, sodium salt, potassium salt) prepared in the above examples, a drug product was prepared in the form of an oral capsule with the excipient composition as shown in Table 6 below. The drug product was left to stand at 50° C. and 80% humidity for 3 weeks, and then an amount of change in related substances was measured. For measurement of related substances, the contents were separated from the capsule, and then all of them were placed in a diluted solution so that the active ingredient was brought to a concentration of 1 mg/mL. Shaking was performed for 5 minutes. The supernatant was taken and filtered. The filtrate was taken and subjected to high-performance liquid chromatography (HPLC).
From the resulting data, percentages of a peak area of the main compound (active ingredient) and a peak area of the lactam-based related substances were measured. In addition, for comparison, the same test was also carried out for the free base of the compound of Formula 1.

The nature of data set [5]: Evaluation of stability of crystal form (PXRD after drying in vacuo at 50° C.). Conditions: after being dried in vacuo at 50° C. The method, then:
The solid product (crystalline form A) obtained in Example 1 was subjected to powder X-ray diffraction (PXRD). The results are shown in FIG. 1 and Table 8 below. • Instrument: Maker Bruker AXS, D8 FOCUS • Conditions: 40 kV, 30 mA, 2θ/θ scan range of 3° to 50°
The solid product (crystalline form A) obtained in Example 1 was dried in vacuo at 50° C., and then subjected to powder X-ray diffraction as described above. The results are illustrated in FIG. 4.
On the other hand, using 1,4-dioxane as a solvent, a solid product (crystalline form B) was obtained in a similar manner as in Example 1, and subjected to powder X-ray diffraction as described above.

Data set [6] can be described thus: Water solubility (distilled water at 25° C., HPLC). Particulars: supersaturated solution. The method, then:
The water solubility was obtained as follows. Each of the free base and the dibesylate salt was dissolved in distilled water at 25° C. to make it supersaturated. Then, the solution was taken and diluted 20-fold with a diluent for dissolution. Then, the resultant was subjected to high-performance liquid chromatography (HPLC). In the resulting data, the dissolved amount was calculated from a peak area of the main compound.

Data set [7] in a line: Physical state of the product as obtained (foam, moistening). Conditions: observation in words. From the text:
First, the compound of Formula 1 was not solidified, which posed great difficulty in controlling a residual solvent.

Where [8] appears, read: After 3 months at 40° C. and 75% relative humidity.

In data set [1] (60% RH), `O=C(O)CCCN[C@@H](Cn1c(=O)c2c(n(Cc3c(F)cccc3C(F)(F)F)c1=O)COC21CCN(Cc2ccc(C(F)(F)F)o2)CC1)c1ccccc1` [Sodium salt] came in with a Hygroscopicity of 8.7 wt %. Also, the Hygroscopicity in data set [1] (90% RH) stood at 35 wt %. In data set [2], the “Increase in related substances” value was 0.6% and the “Residual amount of main compound” value is on record as 77.0%.

In the case of `O=C(O)CCCN[C@@H](Cn1c(=O)c2c(n(Cc3c(F)cccc3C(F)(F)F)c1=O)COC21CCN(Cc2ccc(C(F)(F)F)o2)CC1)c1ccccc1` [Potassium salt], the Hygroscopicity in data set [1] (60% RH) is 9.2 wt %; in data set [1] (90% RH) it was 38 wt %. The “Increase in related substances” value in data set [2] is reported as 0.4%. In addition, in data set [2], the “Residual amount of main compound” value is on record as 72.6%.

As for `O=C(O)CCCN[C@@H](Cn1c(=O)c2c(n(Cc3c(F)cccc3C(F)(F)F)c1=O)COC21CCN(Cc2ccc(C(F)(F)F)o2)CC1)c1ccccc1` [Dibesylate salt], the figures for the “Chemical purity: Related substances” value in data set [3] (setting [8]) and in data set [3] (Initial) were 0.03% and 0.02%, respectively. Further, the figures for the “Chemical purity: main compound (Dibesylate salt)” value in data set [3] (setting [8]) and in data set [3] (Initial) were 99.6% and 99.7%, respectively. In addition, in data set [4], the “Stability of drug product (in words)” value is on record as “very good stability”. The Hygroscopicity in data set [1] (60% RH) is 0.06 wt %; in data set [1] (90% RH), 0.9 wt %; in data set [1] (90% RH, listed as dibesylate salt) it was “very low hygroscopicity”. The “Stability of crystal structure (PXRD)” value in data set [5] (listed as crystalline form A) is “maintained the same crystal structure as its initial one”. Moreover, the “Water solubility (25° C.)” value in data set [6] is recorded as 25.77 mg/mL; in data set [6] (listed as dibesylate salt), “greatly improved water solubility”. For the same molecule, the “Increase in related substances” value in data set [2] is reported as 0.0%; in data set [2] (listed as dibesylate salt) it was “did not generate any related substances”. In data set [2], the “Residual amount of main compound” value amounted to 99.6%.

Regarding `O=C(O)CCCN[C@@H](Cn1c(=O)c2c(n(Cc3c(F)cccc3C(F)(F)F)c1=O)COC21CCN(Cc2ccc(C(F)(F)F)o2)CC1)c1ccccc1` [diphosphate salt, reference compound], the “Moistening of the product obtained in the form of a foam” value in data set [7] was “easily moistened and turned into a sticky oil form”.

`O=C(O)CCCN[C@@H](Cn1c(=O)c2c(n(Cc3c(F)cccc3C(F)(F)F)c1=O)COC21CCN(Cc2ccc(C(F)(F)F)o2)CC1)c1ccccc1` [Dihydrochloride salt]: the Hygroscopicity in data set [1] (60% RH) turned out to be 2.1 wt %. Further, the Hygroscopicity in data set [1] (90% RH) was 16 wt %. In data set [2], the “Increase in related substances” value was found to be 0.9% and the “Residual amount of main compound” value is on record as 69.4%.

Turning to `O=C(O)CCCN[C@@H](Cn1c(=O)c2c(n(Cc3c(F)cccc3C(F)(F)F)c1=O)COC21CCN(Cc2ccc(C(F)(F)F)o2)CC1)c1ccccc1` [Dioxalate salt], the Hygroscopicity in data set [1] (60% RH) was found to be 3.5 wt %; in data set [1] (90% RH), 19 wt %.

Consider `O=C(O)CCCN[C@@H](Cn1c(=O)c2c(n(Cc3c(F)cccc3C(F)(F)F)c1=O)COC21CCN(Cc2ccc(C(F)(F)F)o2)CC1)c1ccccc1` [crystalline form B], for which, in data set [5], the “Stability of crystal structure (PXRD)” value is reported as “did not maintain some of its initial crystal structure”.

With `O=C(O)CCCN[C@@H](Cn1c(=O)c2c(n(Cc3c(F)cccc3C(F)(F)F)c1=O)COC21CCN(Cc2ccc(C(F)(F)F)o2)CC1)c1ccccc1` [Free base, (R)-4-((2-(1-(2-fluoro-6-(trifluoromethyl)benzyl)-2,4-dioxo-1′-((5-(trifluoromethyl)furan-2-yl)methyl)-1H-spiro[furo[3,4-d]pyrimidine-5,4′-piperidine]-3 (2H,4H,7H)-yl)-1-phenylethyl)amino)butanoic acid], in data set [7], the “Moistening of the product obtained in the form of a foam” value is “easily moistened and turned into a sticky oil form”. Further, the “Water solubility (25° C.)” value was 0.19 mg/mL in data set [6] and “low water solubility” in data set [6] (listed as free base). Besides, the “Increase in related substances” value was 79.0% in data set [2] and “about 79%” in data set [2] (listed as free base). Moreover, in data set [2], the “Residual amount of main compound” value is on record as 1.4%.
